Data reported in BigSolDB 2.1.

COc1cc(N)nc(OC)n1
solubility (mole fraction)
Conditions | 283.15 K | 288.15 K | 293.15 K | 298.15 K | 303.15 K | 308.15 K | 313.15 K | 318.15 K | 323.15 K
in DMF | 0.055 | 0.0726 | 0.0949 | 0.123 | 0.158 | 0.201 | 0.254 | 0.319 | 0.397
in ethanol | 0.0101 | 0.013 | 0.0164 | 0.0205 | 0.0253 | 0.0313 | 0.0383 | 0.0463 | 0.0561
in isopropanol | 0.00553 | 0.00742 | 0.0101 | 0.0133 | 0.0175 | 0.023 | 0.0297 | 0.038 | 0.0484
in methanol | 0.0181 | 0.0214 | 0.0254 | 0.0301 | 0.0352 | 0.0414 | 0.0482 | 0.0559 | 0.0643
in water | 0.000298 | 0.000347 | 0.000405 | 0.000464 | 0.000534 | 0.000614 | 0.000695 | 0.000788 | 0.000897
